Values joined by “and” are separate entries in the source; they are usually repeats but may differ in a detail not shown here. Equal entries are not always repeated.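 These data come from cells grown in 96-well plates and exposed to compound for 48 hours at five concentrations. GI50 is the concentration that inhibits growth by half. Definition used: TGI = concentration required for complete inhibition of growth.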
Each molecule was assayed on NCI-H522 lung (assay: NCI anticancer screen, dose series, 48 h).

Row | SMILES | GI50 | TGI
1 | Nc1c(C(=O)c2ccc(Cl)cc2)sc(Nc2ccccc2)c1-c1nc2ccccc2s1 | 3.13 µM | > 74.1 µM
2 | COc1ccc(/C=N\NC(=O)CN2CCN(c3cc4c(cc3F)c(=O)c(C(=O)N/N=C/c3ccc(OC)c(OC)c3)cn4C3CC3)CC2)cc1OC | 3.66 µM | > 100 µM

These molecules were tested on SF-268 CNS (assay: NCI anticancer screen, dose series, 48 h).

Row | SMILES | TGI | GI50
3 | c1ccc2c(c1)CCC/C2=N\OCC1CO1 (configuration not stated) | > 100 µM | 
4 | CC/C(C)=C1\CCC(CN2CCOCC2)C1=O (configuration not stated) | 26 µM | 
5 | O=C1OC(CC(=O)c2ccc(Cl)c(Cl)c2)C(Cl)=C1Cl (configuration not stated) | > 100 µM | 
6 | O=[N+]([O-])c1cccc(C2N3CCCCC3[C@@H]3c4[nH]c5ccccc5c4CCN23)c1 (some centres not stated) | 27.4 µM | 
7 | O=S(=O)(N/N=C/c1ccc(/C=N/NS(=O)(=O)c2ccccc2)cc1)c1ccccc1 | > 100 µM | 
8 | CCOC(=O)C(N)C[S][Sn]([CH3])([CH3])[Cl] (configuration not stated) | > 100 µM | > 100000 nM
9 | CC1=C2[C@@H](CC1)[C@]1(C)O[C@@](C3CCCCC3)(C[C@H]1OC(=O)CO)[C@H]2OC(=O)/C=C/c1ccccc1 | 17.6 µM | 1020 nM
10 | O=C(O[C@H]1CN[C@H](C#Cc2cc3ncnc(Nc4ccc5c(ccn5Cc5cc(F)ccc5F)c4)c3s2)C1)N1CCOCC1 | 8.8 µM | 3230 nM
11 | O=c1c(Oc2ccc(F)cc2F)cc2cnc(NC3CCOCC3)nc2n1C1CCS(=O)(=O)CC1 | > 25 µM | > 25000 nM
12 | NOCC(=O)O | > 100 µM | > 100000 nM
13 | CC(=O)c1c(C)[nH]c(-c2nc3ccc(N4CCN(C)CC4)cc3[nH]2)c1-c1ccc(OCC2CCOCC2)cc1 | 20.1 µM | 3520 nM
14 | CC12OC(c3ccccc3)=CC(c3ccc(Cl)cc3)=C1C(c1ccccc1)=CC2=O (configuration not stated) | > 100 µM | > 100000 nM
15 | Cc1nc2sc(C(=O)Nc3cccc(Cl)c3C)c(N)c2cc1C(=O)/C=C/c1ccccc1 | 5.15 µM | 938 nM
16 | CC(C)c1ccc(C(=O)Nc2nc3ccc(O)cc3s2)cc1 | > 100 µM | 4060 nM
17 | C=C1C(=O)O[C@H]2[C@H]1CC/C(CNC(=O)c1cc3cc(OC)ccc3[nH]1)=C\CC[C@@]1(C)O[C@@H]21 | 4.47 µM | 1790 nM
18 | CC(=O)N[C@H]1C=C[C@@H]2/C=C(C)/C=C/[C@@H](C)[C@H]([C@H](C)[C@H](O)[C@@H](C)NC(C)=O)OC(=O)/C=C/C=C(C)\C=C\[C@]2(C)C1 | 4.65 µM and > 45 µM | 126 nM and 32.2 nM
19 | ClCc1cccc(Cn2cnc3c(NC45CC6CC(CC(C6)C4)C5)ncnc32)c1 | 40.5 µM | 12000 nM
20 | CC(=O)CC(=O)Nc1ccc2ccccc2c1 | > 100 µM | 
21 | O=c1c2cc(Cl)ccc2oc2ccc(OCCCCCN3CCCCC3)cc12 | 12.2 µM | 5280 nM
22 | Cc1cc(I)cc(CN(C)CCCN2CCSCC2)c1O | > 100 µM | 28400 nM
23 | O=C1c2ccccc2C(=O)N1CCCSc1ccccc1 | > 100 µM | 
24 | COc1cc(Nc2nccc(Nc3ccc4c(C)[nH]nc4c3)n2)cc(OC)c1OC | 7.89 µM | 2420 nM
25 | Nc1c(C(=O)c2ccc(Cl)cc2)sc(Nc2ccccc2)c1-c1nc2ccccc2s1 | > 100 µM | 1440 nM
26 | COc1ccc(/C=N\NC(=O)CN2CCN(c3cc4c(cc3F)c(=O)c(C(=O)N/N=C/c3ccc(OC)c(OC)c3)cn4C3CC3)CC2)cc1OC | 7.12 µM | 2530 nM

These molecules were tested on SK-MEL-5 melanoma (assay: NCI anticancer screen, dose series, 48 h).

Row | SMILES | TGI | GI50
27 | c1ccc2c(c1)CCC/C2=N\OCC1CO1 (configuration not stated) | > 100 µM | 
28 | CC/C(C)=C1\CCC(CN2CCOCC2)C1=O (configuration not stated) | 78.4 µM | 
29 | O=C1OC(CC(=O)c2ccc(Cl)c(Cl)c2)C(Cl)=C1Cl (configuration not stated) | > 100 µM | 
30 | O=[N+]([O-])c1cccc(C2N3CCCCC3[C@@H]3c4[nH]c5ccccc5c4CCN23)c1 (some centres not stated) | 27.2 µM | 
31 | O=S(=O)(N/N=C/c1ccc(/C=N/NS(=O)(=O)c2ccccc2)cc1)c1ccccc1 | > 100 µM | 
32 | CCOC(=O)C(N)C[S][Sn]([CH3])([CH3])[Cl] (configuration not stated) | > 100 µM | > 100000 nM
33 | COc1cc(Cl)c2c3c(c(C(C)=O)oc13)CCC2 | > 100 µM | 
34 | NC(=O)C(=Cc1ccc(C(O)P(=O)(O)O)cc1)C(N)=O (configuration not stated) | > 100 µM | 
35 | CC1=C2[C@@H](CC1)[C@]1(C)O[C@@](C3CCCCC3)(C[C@H]1OC(=O)CO)[C@H]2OC(=O)/C=C/c1ccccc1 | 24.9 µM | 12000 nM
36 | O=C(O[C@H]1CN[C@H](C#Cc2cc3ncnc(Nc4ccc5c(ccn5Cc5cc(F)ccc5F)c4)c3s2)C1)N1CCOCC1 | 6.13 µM | 2950 nM
37 | O=c1c(Oc2ccc(F)cc2F)cc2cnc(NC3CCOCC3)nc2n1C1CCS(=O)(=O)CC1 | > 25 µM | > 25000 nM
38 | NOCC(=O)O | > 100 µM | > 100000 nM
39 | CC(=O)c1c(C)[nH]c(-c2nc3ccc(N4CCN(C)CC4)cc3[nH]2)c1-c1ccc(OCC2CCOCC2)cc1 | 3.17 µM | 966 nM
40 | CC12OC(c3ccccc3)=CC(c3ccc(Cl)cc3)=C1C(c1ccccc1)=CC2=O (configuration not stated) | > 100 µM | 42100 nM
41 | Cc1nc2sc(C(=O)Nc3cccc(Cl)c3C)c(N)c2cc1C(=O)/C=C/c1ccccc1 | 1.43 µM | 572 nM
42 | CC(C)c1ccc(C(=O)Nc2nc3ccc(O)cc3s2)cc1 | > 100 µM | 535 nM
43 | C=C1C(=O)O[C@H]2[C@H]1CC/C(CNC(=O)c1cc3cc(OC)ccc3[nH]1)=C\CC[C@@]1(C)O[C@@H]21 | 4.85 µM | 2010 nM
44 | CC(=O)N[C@H]1C=C[C@@H]2/C=C(C)/C=C/[C@@H](C)[C@H]([C@H](C)[C@H](O)[C@@H](C)NC(C)=O)OC(=O)/C=C/C=C(C)\C=C\[C@]2(C)C1 | 0.0458 µM and 0.00824 µM | 8.96 nM and 4.5 nM
45 | ClCc1cccc(Cn2cnc3c(NC45CC6CC(CC(C6)C4)C5)ncnc32)c1 | 31.7 µM | 16400 nM
46 | CC(=O)CC(=O)Nc1ccc2ccccc2c1 | > 100 µM | 
47 | O=c1c2cc(Cl)ccc2oc2ccc(OCCCCCN3CCCCC3)cc12 | 1.91 µM | 892 nM
48 | Cc1cc(I)cc(CN(C)CCCN2CCSCC2)c1O | 31 µM | 16400 nM
49 | O=C1c2ccccc2C(=O)N1CCCSc1ccccc1 | > 100 µM | 

— PubChem BioAssay (NCI)
